Reference: ChEMBL document CHEMBL2169844, “6β-N-heterocyclic substituted naltrexamine derivative NAP as a potential lead to develop peripheral mu opioid receptor selective antagonists” (Bioorg Med Chem Lett, 2012)
Active and inactive are the calls of the source. The rule behind the calls is not given here.

Key:
Mus musculus [1] = experiment: Increase in gastrointestinal motility in sc dosed morphine-pelleted mouse administered 20 mins before forced charcoal meal measured after 30 mins; type: functional
Mus musculus [2] = experiment: Increase in gastrointestinal motility in morphine-naive mouse assessed as decrease in stool weight at 3 mg/kg, sc administered 20 mins before forced charcoal meal measured after 30 mins; type: functional, organism-based; design: dose 3 mg/kg
Mus musculus [3] = experiment: Increase in gastrointestinal motility in morphine-pelleted mouse assessed as decrease in stool weight at 0.3 to 1 mg/kg, sc administered 20 mins before forced charcoal meal measured after 30 mins; type: functional, organism-based
Mus musculus [4] = species on record: Mus musculus; experiment: Ratio of ED50 for increase in gastrointestinal motility in morphine-pelleted mouse to ED50 for toxicity in mouse assessed as lower locomotory activity; type: functional
Mus musculus [5] = experiment: Increase in gastrointestinal motility in morphine-pelleted mouse at 0.003 to 0.03 mg/kg, sc administered 20 mins before forced charcoal meal measured after 30 mins; type: functional, organism-based
Mus musculus [6] = experiment: Toxicity in mouse assessed as lower locomotory activity measured as walking at 32 mg/kg, iv followed by morphine at 32 mg/kg, sc; type: organism-based; details: in vivo
Mus musculus [7] = experiment: Increase in gastrointestinal motility in morphine-pelleted mouse assessed as increase in stool weight at 0.3 to 1 mg/kg, sc administered 20 mins before forced charcoal meal measured after 30 mins; type: functional, organism-based
Mus musculus [8] = experiment: Toxicity in mouse assessed as high locomotory activity measured as jumping up to 50 mg/kg, iv followed by morphine at 32 mg/kg, sc; type: organism-based; details: in vivo
Mus musculus [9] = experiment: Increase in gastrointestinal motility in morphine-pelleted mouse at 0.3 mg/kg, sc administered 20 mins before forced charcoal meal measured after 30 mins; type: functional, organism-based; design: dose 0.3 mg/kg
Mus musculus [10] = experiment: Increase in gastrointestinal motility in morphine-pelleted mouse assessed as decrease in stool weight at 0.3 to 3 mg/kg, sc administered 20 mins before forced charcoal meal measured after 30 mins; type: functional, organism-based
Mus musculus [11] = species on record: Mus musculus; experiment: Ratio of naloxone to compound for toxicity in mouse assessed as reduced wet dog shakes; type: organism-based; details: in vivo
Mus musculus [12] = experiment: Increase in gastrointestinal motility in morphine-pelleted mouse at 1 mg/kg, sc administered 20 mins before forced charcoal meal measured after 30 mins; type: functional, organism-based; design: dose 1 mg/kg
Mus musculus [13] = experiment: Increase in gastrointestinal motility in morphine-naive mouse assessed as decrease in stool weight at 30 mg/kg, sc administered 20 mins before forced charcoal meal measured after 30 mins; type: functional, organism-based; design: dose 30 mg/kg
Mus musculus [14] = experiment: Increase in gastrointestinal motility in morphine-naive mouse assessed as decrease in stool weight at 0.3 mg/kg, sc administered 20 mins before forced charcoal meal measured after 30 mins; type: functional, organism-based; design: dose 0.3 mg/kg
Mus musculus [15] = experiment: Toxicity in mouse assessed as wet dog shakes at 50 mg/kg, iv followed by morphine at 32 mg/kg, sc; type: organism-based; details: in vivo
Mus musculus [16] = experiment: Increase in gastrointestinal motility in morphine-pelleted mouse at 3 mg/kg, sc administered 20 mins before forced charcoal meal measured after 30 mins; type: functional, organism-based; design: dose 3 mg/kg
Mus musculus [17] = experiment: Ratio of ED50 for MNTX to compound ED50 for morphine-pelleted mouse administered 20 mins before forced charcoal meal measured after 30 mins; type: functional
Mus musculus [18] = species on record: Mus musculus; experiment: Ratio of naltrexone to compound for toxicity in mouse assessed as reduced wet dog shakes; type: organism-based; details: in vivo
Mus musculus [19] = experiment: Toxicity in morphine-pelleted mouse assessed as diarrhea at 0.3 mg/kg, sc; type: organism-based; design: dose 0.3 mg/kg, route subcutaneous; details: in vivo
[20] = target: Mu-type opioid receptor (Rattus norvegicus) (UniProt P33535); experiment: Partial agonist activity at mu opioid receptor in rat thalamus assessed as stimulation of [35S]-GTP[gammaS]-binding relative to DAMGO; type: functional, tissue-based
Mu-type opioid receptor (Rattus norvegicus), sequence (P33535 whole entry): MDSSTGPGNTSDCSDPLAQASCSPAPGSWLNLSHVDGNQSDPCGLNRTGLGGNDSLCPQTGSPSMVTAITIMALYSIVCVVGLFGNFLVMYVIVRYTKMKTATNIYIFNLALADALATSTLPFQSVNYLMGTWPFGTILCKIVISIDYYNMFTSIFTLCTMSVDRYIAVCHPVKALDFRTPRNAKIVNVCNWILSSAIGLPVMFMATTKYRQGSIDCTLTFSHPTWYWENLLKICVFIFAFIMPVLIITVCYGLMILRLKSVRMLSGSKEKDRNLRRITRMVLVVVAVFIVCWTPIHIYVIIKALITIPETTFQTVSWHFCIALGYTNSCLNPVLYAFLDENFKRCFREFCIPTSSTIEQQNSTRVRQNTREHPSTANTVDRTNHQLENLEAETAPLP

Structure (SMILES) | ED50 (Mus musculus [1]) [mg/kg] | Activity (Mus musculus [2]) | Activity (Mus musculus [3]) | Ratio ED50 (Mus musculus [4]) | Activity (Mus musculus [5]) | Activity (Mus musculus [6]) | Activity (Mus musculus [7]) | Activity (Mus musculus [8]) | Activity (Mus musculus [9]) | Activity (Mus musculus [10]) | Ratio (Mus musculus [11]) | Activity (Mus musculus [12]) | Activity (Mus musculus [13]) | Activity (Mus musculus [14]) | Activity (Mus musculus [15]) | Activity (Mus musculus [16]) | Ratio ED50 (Mus musculus [17]) | Ratio (Mus musculus [18]) | Activity (Mus musculus [19]) | Emax [20] [%]
C[N+]1(CC2CC2)CC[C@]23c4c5ccc(O)c4O[C@H]2C(=O)CC[C@@]3(O)[C@H]1C5 (stereo partly specified) [METHYLNALTREXONE] | 2.5 |  |  |  |  |  |  |  |  |  |  |  |  |  |  |  |  |  |  | 
O=C(N[C@@H]1CC[C@@]2(O)[C@H]3Cc4ccc(O)c5c4[C@@]2(CCN3CC2CC2)[C@H]1O5)c1ccncc1 | 0.0088 | Active | Active | >3600 | inactive | Toxic | inactive | Toxic | Active | inactive | 50 | Active | inactive | inactive | Toxic | Active | 300 | 50 | Toxic | 16.7
